Where a name gives a salt, the structure may show the parent alone. Read-outs that look alike come from different tables or passages of the source. Some results are limits rather than exact numbers.

The values below come from US4973586A, “Fused benzazepines, compositions of, and medical use thereof” (Schering Corporation, priority 1988, dated 1990).

One experiment addresses T1, dopamine D-1 receptor (Rattus norvegicus, UniProt P18901).
T1 construct: Striatal tissue was excised, pooled, and homogenized; from tissue; host or cells: rat striatum, washed membrane pellet (male Sprague-Dawley rats, Charles River)
Briefly: Competitive inhibition assay, displacement of 3H-SCH 23390 (D-1 receptor binding). Also noted: species or system rat (male Sprague-Dawley, striatal tissue). The text has this:
(§1) Many compounds capable of effecting reproducible physiological changes in neural tissues are believed to operate by binding at one or more receptor sites.
(§2) A methodology for characterization of D-1 and D-2 receptor binding and an interpretation of the data are described by Billard et al., Life Sciences 35, 1885 (1984) in which the binding of the benzazepine (R)-(+)-8-chloro-2,3,4,5-tetrahydro-3-methyl-5-phenyl-1H- 3-benzazepin-7-ol hemimaleate (SCH 23390) to the dopamine D-1 receptor is characterized. A selectivity for D-1 receptor binding as compared to D-2 receptor binding is believed to confer the therapeutic advantage of avoiding troublesome and potentially irreversible neurological side effects associated with D-2 receptor occupancy.
(§3) Tritiated SCH 23390 and tritiated spiperone (a potent D-2 receptor ligand) were obtained as described in the Billard et al. reference supra and serially diluted in 0.05M Tris buffer, pH 7.4, as required. Compounds of this invention were synthesized as disclosed herein and diluted in 0.05M Tris buffer, pH 7.4, as required.
(§4) Male Sprague-Dawley rats (200 to 250 g) from Charles River Breeding Laboratories, Mass. were used to obtain brain tissue. The rats were humanely sacrificed and their brains removed and placed on ice. Striatal tissue was excised, pooled, and homogenized (Brinkman Polytron, 10 sec) in 100 volumes (w/v) of ice cold 50 mM Tris buffer, pH 7.4 (at 25° C.). The homogenate was centrifuged at 20,000 xg for 10 min. The resultant pellet was rehomogenized in Tris buffer and centrifuged again. The final pellet was resuspended in 50 mM Tris buffer pH 7.4 containing 120 mM NaCl, 5 mM KCl, 2 mM CaCl2, and 1 mM MgCl2.
(§5) Polypropylene incubation tubes received 100 μl of the individual test compounds at various concentrations dissolved or suspended in 0.05M Tris, pH 7.4 containing 4 mg/ml methylcellulose, 100 μl of a solution of ^3 H-SCH 23390 in Tris buffer (final reaction mixture concentration=0.3 nM) or 100 μl of a solution of ^3 H-spiperone in Tris buffer (final concentration=0.2 nM) and 800 μl of tissue suspension (ca. 3 mg/assay). Tubes were incubated at 37° C. for 15 minutes and rapidly vacuum filtered through Whatman GF/B filters and rinsed 4 times with 4 ml of ice cold 50 mM Tris buffer, pH 7.4. The filters were transferred to scintillation vials, equilibated with 10 ml of scintillant (Scintosol, Isolab, Inc.) for 16 hours at 25° C. and the radioactivity determined in a liquid scintillation counter. Ki values were determined as described by Billard et al. using the relationship Ki = IC50 /(1+([L]/KD)) wherein IC50 =concentration of test drug necessary to displace 50% of specifically bound ^3 H-Sch 23390, [L]=concentration of radioligand used in the assay, and KD =dissociation constant.
In general terms: Loss of bound radioactivity is the signal in a displacement assay; it reports binding, not function.

The next experiment concerns the target T2, D-2 receptor (Rattus norvegicus, UniProt P61169).
T2 construct: Striatal tissue was excised, pooled, and homogenized; from tissue; host or cells: rat striatum, washed membrane pellet (male Sprague-Dawley rats, Charles River)
The experiment can be described thus: Competitive inhibition assay, displacement of 3H-spiperone (D-2 receptor binding). Also noted: species or system rat (male Sprague-Dawley, striatal tissue).
From the text: as §1, §2, §3, §4, §5

A short description of experiment [1]: Conditioned avoidance suppression (CAR) in rats. In kind it is in vivo. To be noted: lowest dose significantly (P≤0.05) reducing avoidance responding, rat, in mg/kg. As to the method: A series of experiments was carried out to assess the ability of the compounds of this invention to suppress the conditioned avoidance response (CAR) in rats.
Rats were required to jump onto a platform located 6.75 inches (17.15 cm) above the grid floor of an experimental chamber in response to a 5-second tone to avoid a 10-second foot shock (0.6 ma). Each experimental session consisted of 20 such trials presented at 30-second intervals. A correct CAR is scored whenever the rat jumps onto the platform during the tone (prior to foot shock). An escape response is scored when the rat jumps onto the platform during a shock. A response failure is defined as the lack of an escape response during the 10-second shock period.
Groups of 6-8 rats were trained in two consecutive days (total of 40 trials). Rats that reached criterion on day 2 (correct CARs on 16 or more of the 20 trials) were treated with either a test drug or vehicle on day 3. Suppression of CAR was analyzed statistically using Student's t-test comparing the performance of rats on day 2 with their performance following drug on day 3.

A short description of experiment [2]: Squirrel monkey conditioned avoidance response (CAR) test. In kind it is in vivo. To be noted: for MEAN (±SE) NUMBER OF […] 6 HOURS POST-TREATMENT: 10 mg/kg p.o., vehicle 59.1 + 0.9 (N=7); for ability to significantly decrease the number of avoidances six hours after dosing (duration): 10 mg/kg po, six hours prior to testing; for ED50: Primates, po. The text has this: This test was designed to measure the effective duration of candidate compounds.
Male or female squirrel monkeys weighing 800-1200 g housed one per cage were utilized. Initially each monkey was taught to terminate a 3 mA electric shock delivered through the grid floor of the test cage and an overlapping tone by depressing a lever in the cage.
In the second phase of the testing, a ten second tone is turned on prior to the shock component. A lever press during the sounding of the tone terminates the tone and prevents the occurrence of the shock component and is denoted as an "avoidance".
The compound testing was commenced after three consecutive days of re-testing. […] The monkey must achieve at least an 85% correct avoidance before drug testing commences. If this minimal avoidance level is achieved, the next day the monkey is orally dosed or injected with the subject compounds in the appropriate vehicle and the number of avoidances are recorded. An animal is defined as having been "affected" by any drug treatment if there is a 50% loss of avoidance behavior relative to the performance of the animal when only the vehicle was injected. The minimal effective dose (MED) is defined as that dose producing an effect in at least 50% of the animals.
A test was conducted to determine the effective duration of a compound of the present invention, 6,7,7a,8,9,13b-hexahydro-3-chloro-2-hydroxy-7-methyl-5H-benzo[ d]naphtho[2,1-b]azepine, denoted as Compound A, compared to a known compound, (d)-7-chloro-8-hydroxy-3-methyl-1-phenyl-2,3,4,5-tetrahydro-1h-3-benzazepine maleate, denoted as Compound B (Sch 23390)
The duration of each compound was determined by administering a 10 mg/kg po dose six hours prior to testing.

The mark [3] stands for this setting: rat striatum, 3H-spiperone 0.2 nM, pH 7.4, 37° C., 15 min, read-out: Ki, 3H-Spip.
Setting [4] is: rat striatum, 3H-SCH 23390 0.3 nM, pH 7.4, 37° C., 15 min, read-out: Ki, 3H-23390.

T2 sequence (P61169 whole entry): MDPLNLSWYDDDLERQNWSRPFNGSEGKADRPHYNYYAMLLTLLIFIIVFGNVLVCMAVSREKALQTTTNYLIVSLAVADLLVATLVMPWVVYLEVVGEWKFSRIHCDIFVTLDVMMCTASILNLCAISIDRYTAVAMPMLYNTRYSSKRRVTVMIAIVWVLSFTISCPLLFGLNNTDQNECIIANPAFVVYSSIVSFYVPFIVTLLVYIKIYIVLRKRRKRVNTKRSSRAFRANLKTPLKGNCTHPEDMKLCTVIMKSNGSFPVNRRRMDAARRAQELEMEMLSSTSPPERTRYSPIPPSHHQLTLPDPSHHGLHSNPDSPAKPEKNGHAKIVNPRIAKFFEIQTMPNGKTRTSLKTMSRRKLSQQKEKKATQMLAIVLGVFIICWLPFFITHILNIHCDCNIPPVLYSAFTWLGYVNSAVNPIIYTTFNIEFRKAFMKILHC
T1 sequence (P18901 whole entry): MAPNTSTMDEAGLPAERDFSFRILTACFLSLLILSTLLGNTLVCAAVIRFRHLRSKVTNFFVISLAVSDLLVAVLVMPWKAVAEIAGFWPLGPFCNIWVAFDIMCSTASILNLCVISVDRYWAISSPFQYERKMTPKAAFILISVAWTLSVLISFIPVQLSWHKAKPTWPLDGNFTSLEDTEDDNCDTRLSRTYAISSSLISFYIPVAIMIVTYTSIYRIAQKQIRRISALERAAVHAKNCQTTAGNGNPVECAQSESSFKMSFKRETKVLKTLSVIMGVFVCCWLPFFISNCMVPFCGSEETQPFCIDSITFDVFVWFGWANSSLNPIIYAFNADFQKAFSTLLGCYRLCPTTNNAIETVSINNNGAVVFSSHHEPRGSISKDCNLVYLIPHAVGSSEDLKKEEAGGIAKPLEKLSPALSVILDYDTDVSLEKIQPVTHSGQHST

By Ki is commonly meant the equilibrium dissociation constant of an inhibitor or competing ligand from its target. Turning to `CN1CCc2cc(Cl)c(O)cc2[C@@H]2c3ccccc3C[C@H]21` (relative stereo) [CH2, 0, trans, Cl, OH, trans-5,6,7,7a,8,12b-Hexahydro-2-hydroxy-3-chloro-7-methyl-benz[d]indeno[2,1-b]azepine], the Ki at dopamine D-1 receptor amounted to 10 nM; at D-2 receptor (setting [3]), 2600 nM.

Consider `COc1cc2c(cc1O)[C@H]1c3ccccc3CC[C@H]1N(C)CC2` (relative stereo) [CH2, 1, cis, CH3O, OH], for which the Ki on dopamine D-1 receptor (setting [4]) was 6450 nM; at D-2 receptor, more than 100000 nM.

On to `COc1cc2c(cc1O)CCN(C)[C@@H]1CCc3ccccc3[C@H]21` (relative stereo) [CH2, 1, cis, HO, CH3O], for which the Ki at D-2 receptor was more than 100000 nM.

In the case of `Cc1cc2c(cc1O)[C@H]1c3ccccc3CC[C@@H]1N(C)CC2` (relative stereo) [CH2, 1, trans, CH3, OH, trans-6,7,7a,8,9,13b-hexahydro-2-hydroxy-3-methyl-7-methyl-5 H-benzo[d]naphtho[2,1-b]azepine], the Ki stood at 119 nM at dopamine D-1 receptor (setting [4]) and 7200 nM on D-2 receptor.

In the case of `COc1cc2c(cc1O)[C@H]1c3ccccc3CC[C@@H]1N(C)CC2` (relative stereo) [CH2, 1, trans, CH3O, OH, trans-6,7,7a,8,9,13b-Hexahydro-2-hydroxy-3-methoxy-7-methyl-5H-benzo[d]naphtho[2,1-b]azepine], the figures for the Ki on dopamine D-1 receptor and at D-2 receptor were 23 nM and 2500 nM, respectively. Also, the “CAR (MED)” value in experiment [1] (po) is recorded as 30; in experiment [1] (sc), 0.3-1.

For the molecule `CN1CCc2cc(Cl)c(N)cc2[C@H]2c3ccccc3CC[C@@H]21` (relative stereo) [CH2, 1, trans, Cl, NH2], the Ki at dopamine D-1 receptor was 70 nM; on D-2 receptor (setting [3]), 4170 nM. In addition, the “CAR (MED)” value in experiment [1] (po) amounted to 3.

On to `CN1CCc2cc(Cl)c(O)cc2[C@H]2c3ccccc3CC[C@@H]21` (relative stereo) [CH2, 1, trans, Cl, OH, trans-6,7,7a,8,9,13b-Hexahydro-3-chloro-2-hydroxy-7-methyl-5H-benzo[d]naphtho[2,1-b]azepine], for which the “CAR (MED)” value in experiment [1] (po) is 30; in experiment [1] (sc), 0.3.

Turning to `CN1CCc2ccc(O)cc2[C@H]2c3ccccc3CC[C@@H]21` (relative stereo) [CH2, 1, trans, H, OH, trans-6,7,7a,8,9,13b-Hexahydro-2-hydroxy-7-methyl-5H-benzo[d]naphtho[2,1-b]azepine], the Ki turned out to be 80 nM at dopamine D-1 receptor and 3500 nM at D-2 receptor (setting [3]).

In turn, `COc1cc2c(cc1O)CCN(C)[C@H]1CCc3ccccc3[C@H]21` (relative stereo) [CH2, 1, trans, HO, CH3O, trans-6,7,7a,8,9,13b-Hexahydro-3-hydroxy-2-methoxy-7-methyl-5H-benzo[d]naphtho[2,1-b]azepine] came in with a Ki at D-2 receptor of more than 100000 nM.

Consider `COc1cc2c(cc1O)[C@H]1c3ccccc3CCC[C@@H]1N(C)CC2` (relative stereo) [CH2, 2, trans, CH3O, OH], for which the Ki on dopamine D-1 receptor (setting [4]) was 292 nM; on D-2 receptor (setting [3]), more than 100000 nM. Besides, the “CAR (MED)” value in experiment [1] (sc) is 10.

For `COc1cc2c(cc1O)CCN(C)[C@H]1CCCc3ccccc3[C@H]21` (relative stereo) [CH2, 2, trans, HO, CH3O], the Ki at dopamine D-1 receptor (setting [4]) is 7730 nM; on D-2 receptor (setting [3]), more than 100000 nM. Besides, in experiment [1] (sc), the “CAR (MED)” value is given as 10.

For `CN1CCc2ccc(O)cc2[C@@H]2c3ccccc3OC[C@H]21` (relative stereo) [O, 1, trans, H, OH, trans-6,6a,7,8,9,13b-Hexahydro-7-methyl-[1]benzopyrano[4,3-a][3]benzazepin-12-ol], the Ki on dopamine D-1 receptor (setting [4]) amounted to 121 nM.

As for `CN1CCc2cc(Cl)c(O)cc2[C@H]2c3ccccc3CC[C@@H]21` [CH2, 1, 7b(R):7a(S)(-), Cl, OH, (-)-trans-6,7,7a,8,9,13b-Hexahydro-3-chloro-2-hydroxy-7-methyl-5H-benzo[b]naphtho[2,1-b]azepine], in experiment [1] (po), the “CAR (MED)” value is on record as 30.

As to `CN1CCc2cc(Cl)c(O)cc2[C@@H]2c3ccccc3CC[C@H]21` [CH2, 1, 7b(S):7a(R)(+), Cl, OH, (+)-trans-6,7,7a,8,9,13b-hexahydro-3-chloro-2-hydroxy-7-methyl-5H-benzo[d]naphtho[2,1-b]azepine], in experiment [1] (po), the “CAR (MED)” value was more than 30.

What is called ED50 is the dose at which the effect has come halfway, by size or by number of responders. As for `CN1CCc2cc(Cl)c(O)cc2C2c3ccccc3CCC21` (stereo not shown) [Compound A, 6,7,7a,8,9,13b-hexahydro-3-chloro-2-hydroxy-7-methyl-5H-benzo[d]naphtho[2,1-b]azepine], in experiment [2], the “MEAN (±SE) NUMBER OF […] 6 HOURS POST-TREATMENT” value was 23.9 + 7.5 and the “ability to significantly decrease the number of avoidances six hours after dosing (duration)” value was “significant decrease in the number of avoidances (≤0.05)”. Besides, the ED50 in experiment [2] (1 h, administered 60 minutes prior to the test, read-out: ED50) is approximately 1.6 mg/kg.

Regarding `CN1CCc2cc(Cl)c(O)cc2[C@@H](c2ccccc2)C1` [Compound B, (d)-7-chloro-8-hydroxy-3-methyl-1-phenyl-2,3,4,5-tetrahydro-1h-3-benzazepine maleate, reference compound], in experiment [2], the “MEAN (±SE) NUMBER OF […] 6 HOURS POST-TREATMENT” value is on record as 59.7 + 0.3 and the “ability to significantly decrease the number of avoidances six hours after dosing (duration)” value is “inactive”. For the same molecule, the ED50 in experiment [2] (0.5 h) worked out at 2.4 mg/kg.
